“And” between values parts separate entries of the source, which are not always exact repeats. Identical values can stand only once. Counter-ions that a name gives are not always drawn. Like-named read-outs stand apart in the source and are kept apart here. Marks after values point to notes of the source that are not given here.
Key:
[1] = Acute toxicity, three daily IV bolus injections in mice (IPM lysine salt, IPM parent control); assay type: in vivo; settings: for intravenous LD10 / intravenous LD50: IV daily × 3 days
Protocol: This example describes the evaluation of the acute toxicity of isophosphoramide mustard lysine salt, following three days of daily intravenous (bolus) injection in mice. This study consisted of two phases.
The second main study phase consisted of eight treatment groups (five mice/sex/group) that received the test article as a single daily dose for three consecutive days at respective dose levels of 50, 75, 100, 200, 300, 400, 500, and 600 mg/kg. An additional group (5 mice/sex) served as a parent compound control and received the isophosphoramide mustard parent compound in the same manner, at a dose level of 150 mg/kg. The vehicle was 0.9% sodium chloride for injection, USP and all doses were at a constant volume of 15 mL/kg.
Observations for mortality, morbidity, and the availability of food and water were conducted twice daily for all animals. Observations for clinical signs were conducted daily during the study (approximately one and four hours postdose on Days 1, 2, and 3, and once daily on non-dosing days). Body weights for all surviving animals were measured and recorded the second day after receipt, prior to randomization, and on Days-1 and 7. Body weights also were measured on all surviving main study phase animals on Day 14. Macroscopic evaluations were performed on each main study animal at necropsy (Day 15).
Eight main study treatment groups received the test article as a single daily dose for three consecutive days via intravenous (bolus) injection at respective dose levels of 50, 75, 100, 200, 300, 400, 500, and 600 mg/kg. An additional group (five mice/sex) served as a parent compound control and received the Isophosphoramide Mustard Parent Compound in the same manner at a dose level of 150 mg/kg. All doses were at a volume of 15 mL/kg and based on the most recent body weight.

advanced cancer = test: Treatment of patients with advanced cancer with IPM.(LYS)2; assay type: in vivo, human
Protocol: One patient (cohort) was treated per dose escalation every 21-28 days to allow for toxicity presentation. Doses were escalated by 40% if there were no serious toxic events.

Lewis lung murine tumor = settings: mouse, in vivo, ip
MX-1 Human Breast Tumor = settings: mouse, in vivo, ip
[2] = Estimated comparable human intravenous dosages
L1210/0 = assay type: in vivo, mice; settings: mouse, in vivo
L1210/CPA = assay type: in vivo, mice; settings: mouse, in vivo
Lewis Lung Carcinoma = tested on: Lewis Lung Carcinoma; parameters: species or system mice; settings: mouse, in vivo
B16 Melanoma = tested on: B16 Melanoma; parameters: species or system mice; settings: mouse, in vivo
P388/0 = assay type: in vivo, mice; settings: mouse, in vivo
P388/CPA = assay type: in vivo, mice; settings: mouse, in vivo
M5076 Sarcoma = test: SC implanted M5076 sarcoma; assay type: in vivo, mice; settings: days 11-15
16/C Mammary Tumor = assay type: in vivo, mice; settings: mouse, in vivo
human lox-IMVI melanoma = assay type: in vivo, mice; settings: mouse, in vivo
[3] = tested on: human MX-1 mammary tumors; assay type: in vivo, mice; settings: mouse, in vivo
[4] = Single dose oral toxicity of IPM in rats; assay type: in vivo; settings: for oral LD50: single dose
[5] = Single dose oral toxicity of IPM in mice; assay type: in vivo
[6] = Single dose intravenous toxicity of IPM in rats; assay type: in vivo
[7] = Single dose intravenous toxicity of IPM in mice; assay type: in vivo
[8] = Sub-acute IV (3-day) toxicity of IPM in mice; assay type: in vivo; settings: for dose with kidney tubular necrosis / dose with severe bone marrow depletion / intravenous LD10 / intravenous LD50: IV daily × 3 days
From the text: Multiple daily dose Administrations—IV and IP—have been studied in mice and dogs. Sub-acute intravenous (3-day) dosing in the mouse and dog has provided the toxicology/pharmacokinetic information regarding toxicities and drug disturbances that were utilized in designing the administration and dose schedules in humans.

[9] = estimated from mouse sub-acute IV LD10

O=P(O)(NCCCl)NCCCl [IPM lysine salt, isophosphoramide mustard lysine salt]
Cumulative Mortality, female ([1]; 50 mg/kg IV daily × 3): 0/5
Cumulative Mortality, male ([1]; 50 mg/kg IV daily × 3): 0/5
Cumulative Mortality, total ([1]; 50 mg/kg IV daily × 3): No mice died
Cumulative Mortality, total ([1]; 50 mg/kg IV daily × 3, listed as IPM Lysine Salt): No animals died and 0/10
Cumulative Mortality, female ([1]; 75 mg/kg IV daily × 3): 0/5
Cumulative Mortality, male ([1]; 75 mg/kg IV daily × 3): 0/5
Cumulative Mortality, total ([1]; 75 mg/kg IV daily × 3): No mice died
Cumulative Mortality, total ([1]; 75 mg/kg IV daily × 3, listed as IPM Lysine Salt): No animals died and 0/10
Cumulative Mortality, female ([1]; 100 mg/kg IV daily × 3): 0/5
Cumulative Mortality, male ([1]; 100 mg/kg IV daily × 3): 1/5
Cumulative Mortality, total ([1]; 100 mg/kg IV daily × 3): 1 of 10
Cumulative Mortality, total ([1]; 100 mg/kg IV daily × 3, listed as IPM Lysine Salt): 1 of 10 and 1/10
Cumulative Mortality, female ([1]; 200 mg/kg IV daily × 3): 3/5
Cumulative Mortality, male ([1]; 200 mg/kg IV daily × 3): 0/5
Cumulative Mortality, total ([1]; 200 mg/kg IV daily × 3): No mice died
Cumulative Mortality, total ([1]; 200 mg/kg IV daily × 3, listed as IPM Lysine Salt): 3 of 10 and 3/10
Cumulative Mortality, female ([1]; 300 mg/kg IV daily × 3): 5/5
Cumulative Mortality, male ([1]; 300 mg/kg IV daily × 3): 4/5
Cumulative Mortality, total ([1]; 300 mg/kg IV daily × 3): 9 out of 10
Cumulative Mortality, total ([1]; 300 mg/kg IV daily × 3, listed as IPM Lysine Salt): 9 of 10 and 9/10
Cumulative Mortality, female ([1]; 400 mg/kg IV daily × 3): 5/5
Cumulative Mortality, male ([1]; 400 mg/kg IV daily × 3): 5/5
Cumulative Mortality, total ([1]; 400 mg/kg IV daily × 3): all mice died
Cumulative Mortality, total ([1]; 400 mg/kg IV daily × 3, listed as IPM Lysine Salt): all animals died and 10/10
Cumulative Mortality, female ([1]; 500 mg/kg IV daily × 3): 5/5
Cumulative Mortality, male ([1]; 500 mg/kg IV daily × 3): 5/5
Cumulative Mortality, total ([1]; 500 mg/kg IV daily × 3): all mice died
Cumulative Mortality, total ([1]; 500 mg/kg IV daily × 3, listed as IPM Lysine Salt): all animals died and 10/10
Cumulative Mortality, female ([1]; 600 mg/kg IV daily × 3): 5/5
Cumulative Mortality, male ([1]; 600 mg/kg IV daily × 3): 5/5
Cumulative Mortality, total ([1]; 600 mg/kg IV daily × 3): all mice died
Cumulative Mortality, total ([1]; 600 mg/kg IV daily × 3, listed as IPM Lysine Salt): all animals died and 10/10
Sub-acute IV LD10 ([1]; Mouse): 133 mg/kg/day
intravenous LD10 ([1]; female mice): 179 mg/kg
intravenous LD50 ([1]; female mice): 197 mg/kg
macroscopic findings at necropsy ([1]; main study, Day 15): No treatment-related macroscopic findings
intravenous LD10 ([1]; male mice): 140 mg/kg
intravenous LD50 ([1]; male mice): 247 mg/kg
intravenous LD10 ([1]; mice, combined sexes): 133 mg/kg
intravenous LD50 ([1]; mice, combined sexes): 220 mg/kg
LD10, intravenous three day dose schedule ([1]; mouse, × 3 days): 133 mg/kg/day
serious toxicity in patients (advanced cancer; 30, 42, 59 and 83 mg/m^2 daily IV for 3 days, one patient each): without serious toxicity
disease response (advanced cancer; one patient with rectal cancer, 83 mg/m^2 daily IV for 3 days): stabilization of their disease
MTD Dosage (Lewis lung murine tumor): 93.2 mg/kg/dose
T-C (Lewis lung murine tumor): 8.3* days
increase of the MTD (mg/kg/dose) of the salt over parent drug (Lewis lung murine tumor): 2 fold
MTD Dosage (MX-1 Human Breast Tumor): 93.2 mg/kg/dose
T-C (MX-1 Human Breast Tumor): 10.2* days
superiority to IPM at comparable dosing (MX-1 Human Breast Tumor): 8 fold
estimated MTD in humans (1/10 the LD10 in mice) [2]: 40 mg/m^2/d
Comparable Human IV Dosage [2, 9]: 40 mg/m^2/d

O=P(O)(NCCCl)NCCCl [IPM, isophosphoramide mustard]
% ILS (dying mice only) (L1210/0): +128%
Day 60 survivors/total (L1210/0): 0/10
Net log10 reduction in tumor burden after therapy (L1210/0): 8
% ILS (dying mice only) (L1210/CPA): +114%
Day 60 survivors/total (L1210/CPA): 1/10
Net log10 reduction in tumor burden after therapy (L1210/CPA): 7
% ILS (Lewis Lung Carcinoma): 34%
Log kill total (Lewis Lung Carcinoma): >2.1
T-C (tumor growth delay) (Lewis Lung Carcinoma): 8.4 days
Tumor-free survivors (Lewis Lung Carcinoma): 6/10
% ILS (B16 Melanoma): 34%
Inhibition of B16 melanoma growth compared with CPA and Ifos (B16 Melanoma): slightly inferior to CPA but better than Ifos
T-C (B16 Melanoma): 8.4 days
Tumor-free survivors (B16 Melanoma): 6/10
Day 60 survivors/total (P388/0): 0/9 and 1/10
Day 60 survivors/total (P388/CPA): 0/10
Net log10 reduction in tumor burden after therapy (P388/CPA): 7
Days Delay (T-C) (M5076 Sarcoma; 18 mg/kg IP daily): 1 days
Days To 2 doublings (M5076 Sarcoma; 18 mg/kg IP daily): 10.3 days
Days Delay (T-C) (M5076 Sarcoma; 27 mg/kg IP daily): 3.3 days
Days To 2 doublings (M5076 Sarcoma; 27 mg/kg IP daily): 12.6 days
Days Delay (T-C) (M5076 Sarcoma; 40 mg/kg IP daily): 6.1 days
Days To 2 doublings (M5076 Sarcoma; 40 mg/kg IP daily): 15.4 days
Days Delay (T-C) (16/C Mammary Tumor): 6.3 days and 5.2 days and 4.2 days
Days to 2 Doublings (16/C Mammary Tumor): 9.5 days and 8.5 days and 7.4 days
% ILS (human lox-IMVI melanoma): +52%
Median Day of Death (human lox-IMVI melanoma): 29.0
Days to 2 Doublings [3]: 26.5 days and 14.2 days
Cumulative Mortality, female ([1]; 150 mg/kg IV daily × 3): 4/5
Cumulative Mortality, male ([1]; 150 mg/kg IV daily × 3): 1/5
Cumulative Mortality, total ([1]; 150 mg/kg IV daily × 3, listed as IPM parent compound): 5 of 10 and 5/10
oral LD50 ([4]; female rats): 2786 mg/kg
oral LD50 ([4]; male rats): 4443 mg/kg
oral LD50 range ([4]; oral, range over mice and rats): 1400 to 3500 mg/kg
oral LD50 ([4]; rats, both sexes combined): 3560 mg/kg
oral LD50 ([5]; female mice): 1962 mg/kg
oral LD50 ([5]; male mice): 1014 mg/kg
oral LD50 ([5]; mice, both sexes combined): 1432 mg/kg
single dose intravenous LD50 ([6]; female rats): 400 mg/kg
single dose intravenous LD50 ([6]; male rats): 567 mg/kg
single dose intravenous LD50 ([7]; female mice): 484 mg/kg
single dose intravenous LD50 ([7]; male mice): 929 mg/kg
treatment-related microscopic findings ([8]; 75 mg/kg, either sex): No obvious treatment-related microscopic findings
Sub-acute IV LD10 ([8]; Mouse): 119 mg/kg/day
dose with kidney tubular necrosis ([8]; female mice): ≥ 133 mg/kg
dose with severe bone marrow depletion ([8]; female mice): ≥ 133 mg/kg
intravenous LD10 ([8]; female mice): 125 mg/kg
intravenous LD50 ([8]; female mice): 132 mg/kg
dose with kidney tubular necrosis ([8]; male mice): ≥ 237 mg/kg
dose with severe bone marrow depletion ([8]; male mice): ≥ 178 mg/kg
intravenous LD10 ([8]; male mice): 168 mg/kg
intravenous LD50 ([8]; male mice): 176 mg/kg
intravenous LD10 ([8]; mice, combined sexes): 119 mg/kg
MTD Dosage (Lewis lung murine tumor): 40.0 mg/kg/dose
T-C (Lewis lung murine tumor): 12.5* days
MTD Dosage (MX-1 Human Breast Tumor): 40.0 mg/kg/dose
T-C (MX-1 Human Breast Tumor): 2.1* days
Sub-acute IV LD10 (Dog): 5 mg/kg/day
survival (dog, in vivo): (100% survival)
MTD (dog, in vivo, iv): 5 mg/kg/day
Comparable Human IV Dosage ([2]; estimated from dog sub-acute IV value): 100 mg/m^2/d
Comparable Human IV Dosage [2, 9]: 30 mg/m^2/d
corresponding safe starting dose in humans ([2]; for three days, from dog MTD): 100 mg/m^2 per day

From patent publication US8664201B2 (priority 2008, dated 2014)
